Consider 2 compounds from patent US8673886B2, “Use of nifuratel to treat infections caused by Atopobium species” (Polichem SA, priority 2009, dated 2014).

In brackets after ≈: the same amount, converted by molar mass. Where two headings read alike, the source gives them in different places.

The subject of this assay is Atopobium vaginae. Nature of the assay: MIC determination on Brucella agar, susceptibility of Atopobium vaginae strains. Format: cell-based. The following applies: for MIC: Fannyhessea vaginae.
[1] abbreviates: all tested strains of Atopobium vaginae.

Compound `CSCC1CN(/N=C/c2ccc([N+](=O)[O-])o2)C(=O)O1` (stereo not shown) [Nifuratel, nifuratel] gave an MIC of 1 µg/mL (≈ 3.51 µM). Moreover, where the note is “CCUG42099”, the MIC is 0.5 µg/mL (≈ 1.75 µM). In addition, the MIC (CCUG43049) was 0.25 µg/mL (≈ 0.876 µM). Where the note is “CCUG44061”, this compound returned an MIC of 1 µg/mL (≈ 3.51 µM). Also, under “CCUG44116”, the MIC is 0.5 µg/mL (≈ 1.75 µM). The compound further returned an MIC (CCUG44125) of 0.25 µg/mL (≈ 0.876 µM). For the same compound, for the setting “CCUG44156”, the MIC was 0.125 µg/mL (≈ 0.438 µM). The MIC (CCUG44258) came out at 0.5 µg/mL (≈ 1.75 µM). The same compound displayed an MIC (CCUG48515) of 0.5 µg/mL (≈ 1.75 µM). In addition, under setting [1], the “susceptibility of Atopobium to the agent (conclusion from MIC)” value is “sensitive”.
For the compound `Cc1ncc([N+](=O)[O-])n1CCO` [Metronidazole, metronidazole], the minimum inhibitory concentration (MIC) is, setting by setting: (CCUG43049, Atopobium vaginae strain CCUG 43049, Brucella agar, anaerobic, read-out: MIC) 16 µg/mL (≈ 93.5 µM); (CCUG44061, Atopobium vaginae strain CCUG 44061, Brucella agar, anaerobic, read-out: MIC) 64 µg/mL (≈ 374 µM); (CCUG44116, Atopobium vaginae strain CCUG 44116, Brucella agar, anaerobic, read-out: MIC) 32 µg/mL (≈ 187 µM); (CCUG44125, Atopobium vaginae strain CCUG 44125, Brucella agar, anaerobic, read-out: MIC) 16 µg/mL (≈ 93.5 µM); (CCUG44156, Atopobium vaginae strain CCUG 44156, Brucella agar, anaerobic, read-out: MIC) 8 µg/mL (≈ 46.7 µM); (CCUG44258, Atopobium vaginae strain CCUG 44258, Brucella agar, anaerobic, read-out: MIC) 32 µg/mL (≈ 187 µM). Further, the MIC (CCUG48515, Atopobium vaginae strain CCUG 48515, Brucella agar, anaerobic, read-out: MIC) turned out to be 32 µg/mL (≈ 187 µM). In addition, the “MICs (range over all strains)” value under setting [1] was 8 to 256 µg/mL. Under setting [1], the “susceptibility of Atopobium to the agent (conclusion from MIC)” value is “resistant”.

In general, MIC refers to the lowest concentration found to suppress growth.
